Results as given in the kinase profiling compilation of Christmann-Franck et al. (2016).

Key:
Test in all cases: KINOMEscan competition binding
[1] = tested on: ABL1 (human), P00519 [E255K]; settings: compound 10.0 µM
[2] = tested on: EIF2AK4 KD2 (human), Q9P2K8 [S808G]; settings: compound 10.0 µM
[3] = biological target: MAP2K3 (human) (UniProt P46734); settings: compound 10.0 µM
[4] = biological target: PLK1 (human) (UniProt P53350); settings: compound 10.0 µM
[5] = biological target: FES (human) (UniProt P07332); settings: for kinase still bound, per cent of control: compound 10.0 µM
Sequence of FES (human) (P07332 whole entry, looked up): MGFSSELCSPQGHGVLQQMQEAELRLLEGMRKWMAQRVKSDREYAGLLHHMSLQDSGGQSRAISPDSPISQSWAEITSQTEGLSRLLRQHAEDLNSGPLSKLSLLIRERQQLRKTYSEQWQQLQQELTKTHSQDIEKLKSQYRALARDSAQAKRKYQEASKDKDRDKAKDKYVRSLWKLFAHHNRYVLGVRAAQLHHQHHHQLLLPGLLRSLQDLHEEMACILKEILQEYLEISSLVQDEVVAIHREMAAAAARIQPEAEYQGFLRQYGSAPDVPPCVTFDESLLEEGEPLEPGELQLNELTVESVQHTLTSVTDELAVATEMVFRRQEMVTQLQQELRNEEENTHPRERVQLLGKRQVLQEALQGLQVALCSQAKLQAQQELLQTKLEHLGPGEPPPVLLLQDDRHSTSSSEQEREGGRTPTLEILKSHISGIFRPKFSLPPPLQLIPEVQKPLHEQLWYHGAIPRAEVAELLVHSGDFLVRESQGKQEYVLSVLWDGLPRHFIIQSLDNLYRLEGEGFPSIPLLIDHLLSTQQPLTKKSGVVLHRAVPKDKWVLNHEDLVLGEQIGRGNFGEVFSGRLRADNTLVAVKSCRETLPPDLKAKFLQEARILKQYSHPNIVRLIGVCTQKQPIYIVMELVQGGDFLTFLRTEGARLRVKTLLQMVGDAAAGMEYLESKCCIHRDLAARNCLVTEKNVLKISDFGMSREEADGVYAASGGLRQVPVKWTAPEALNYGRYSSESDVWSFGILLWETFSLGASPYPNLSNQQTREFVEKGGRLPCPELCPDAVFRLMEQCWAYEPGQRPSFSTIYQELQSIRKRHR

[6] = biological target: HCK (human) (UniProt P08631); settings: compound 10.0 µM
[7] = biological target: CIT (human) (UniProt O14578); settings: compound 10.0 µM
Sequence of CIT (human) (O14578 whole entry, looked up): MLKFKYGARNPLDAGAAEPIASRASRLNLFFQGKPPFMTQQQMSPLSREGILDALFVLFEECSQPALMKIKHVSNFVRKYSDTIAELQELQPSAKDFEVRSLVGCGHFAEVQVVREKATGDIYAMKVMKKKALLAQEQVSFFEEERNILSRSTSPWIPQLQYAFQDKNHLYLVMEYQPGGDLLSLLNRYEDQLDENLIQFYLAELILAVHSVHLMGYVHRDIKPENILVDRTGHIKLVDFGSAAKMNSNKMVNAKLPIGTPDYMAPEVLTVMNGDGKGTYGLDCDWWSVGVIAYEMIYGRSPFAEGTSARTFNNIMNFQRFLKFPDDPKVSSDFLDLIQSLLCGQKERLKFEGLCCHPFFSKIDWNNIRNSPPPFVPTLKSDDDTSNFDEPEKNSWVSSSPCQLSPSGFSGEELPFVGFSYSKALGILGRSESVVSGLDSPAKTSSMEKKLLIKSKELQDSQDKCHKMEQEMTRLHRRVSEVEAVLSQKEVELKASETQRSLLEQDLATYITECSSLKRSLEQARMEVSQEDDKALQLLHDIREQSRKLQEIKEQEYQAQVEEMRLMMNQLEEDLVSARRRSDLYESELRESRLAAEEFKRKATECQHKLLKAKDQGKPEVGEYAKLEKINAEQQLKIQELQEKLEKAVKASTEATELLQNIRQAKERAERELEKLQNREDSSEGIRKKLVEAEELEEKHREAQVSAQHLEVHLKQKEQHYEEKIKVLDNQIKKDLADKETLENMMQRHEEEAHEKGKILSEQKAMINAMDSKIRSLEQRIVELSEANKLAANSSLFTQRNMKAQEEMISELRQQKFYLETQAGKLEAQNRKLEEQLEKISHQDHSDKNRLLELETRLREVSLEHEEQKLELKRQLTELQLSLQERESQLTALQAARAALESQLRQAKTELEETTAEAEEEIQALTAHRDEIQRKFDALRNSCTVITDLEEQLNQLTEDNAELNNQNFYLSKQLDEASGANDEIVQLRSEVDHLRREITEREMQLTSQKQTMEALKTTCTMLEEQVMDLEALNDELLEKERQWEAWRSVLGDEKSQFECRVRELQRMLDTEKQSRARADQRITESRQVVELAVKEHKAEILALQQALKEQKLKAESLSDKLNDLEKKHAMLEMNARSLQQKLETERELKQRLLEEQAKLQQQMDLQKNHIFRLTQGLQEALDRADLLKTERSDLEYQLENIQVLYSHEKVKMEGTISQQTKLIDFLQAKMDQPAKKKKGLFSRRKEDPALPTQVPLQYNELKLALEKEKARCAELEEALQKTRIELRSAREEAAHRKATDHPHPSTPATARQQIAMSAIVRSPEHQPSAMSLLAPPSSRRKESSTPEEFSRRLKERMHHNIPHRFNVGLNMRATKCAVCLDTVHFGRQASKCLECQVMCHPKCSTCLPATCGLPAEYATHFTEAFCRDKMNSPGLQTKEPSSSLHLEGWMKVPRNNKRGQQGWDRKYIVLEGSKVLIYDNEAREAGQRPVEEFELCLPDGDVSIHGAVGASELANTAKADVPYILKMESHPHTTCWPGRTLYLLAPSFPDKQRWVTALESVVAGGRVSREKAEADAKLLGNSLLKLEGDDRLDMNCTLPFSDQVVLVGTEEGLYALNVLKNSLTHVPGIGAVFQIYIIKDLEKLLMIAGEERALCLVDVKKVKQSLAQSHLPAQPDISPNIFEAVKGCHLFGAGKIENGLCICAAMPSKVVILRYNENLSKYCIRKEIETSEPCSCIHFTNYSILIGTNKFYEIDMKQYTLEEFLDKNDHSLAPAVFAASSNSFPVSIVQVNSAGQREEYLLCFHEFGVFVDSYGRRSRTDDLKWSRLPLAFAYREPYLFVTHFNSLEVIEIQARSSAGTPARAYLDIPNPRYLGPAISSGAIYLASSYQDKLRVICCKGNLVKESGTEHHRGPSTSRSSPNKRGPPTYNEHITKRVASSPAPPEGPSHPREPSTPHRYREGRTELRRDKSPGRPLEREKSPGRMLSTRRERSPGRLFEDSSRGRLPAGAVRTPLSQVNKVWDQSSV

[8] = biological target: WEE2 (human) (UniProt P0C1S8); settings: compound 10.0 µM
[9] = tested on: PIK3CA (human), P42336 [E545K]; settings: compound 10.0 µM
[10] = biological target: MAP3K11 (human) (UniProt Q16584); settings: compound 10.0 µM
[11] = biological target: MERTK (human) (UniProt Q12866); settings: compound 10.0 µM
[12] = biological target: CHUK (human) (UniProt O15111); settings: compound 10.0 µM
[13] = biological target: ADCK3 (human) (UniProt Q8NI60); settings: compound 10.0 µM
[14] = biological target: MAP4K4 (human) (UniProt O95819); settings: compound 10.0 µM
[15] = tested on: FLT3 (human), P36888 [K663Q]; settings: compound 10.0 µM
[16] = biological target: RPS6KA5 KD2 (human) (UniProt O75582); settings: compound 10.0 µM
[17] = tested on: EGFR (human), P00533 [L858R]; settings: compound 10.0 µM
[18] = biological target: STK33 (human) (UniProt Q9BYT3); settings: compound 10.0 µM
[19] = biological target: CDKL2 (human) (UniProt Q92772); settings: compound 10.0 µM
Sequence of CDKL2 (human) (Q92772 whole entry, looked up): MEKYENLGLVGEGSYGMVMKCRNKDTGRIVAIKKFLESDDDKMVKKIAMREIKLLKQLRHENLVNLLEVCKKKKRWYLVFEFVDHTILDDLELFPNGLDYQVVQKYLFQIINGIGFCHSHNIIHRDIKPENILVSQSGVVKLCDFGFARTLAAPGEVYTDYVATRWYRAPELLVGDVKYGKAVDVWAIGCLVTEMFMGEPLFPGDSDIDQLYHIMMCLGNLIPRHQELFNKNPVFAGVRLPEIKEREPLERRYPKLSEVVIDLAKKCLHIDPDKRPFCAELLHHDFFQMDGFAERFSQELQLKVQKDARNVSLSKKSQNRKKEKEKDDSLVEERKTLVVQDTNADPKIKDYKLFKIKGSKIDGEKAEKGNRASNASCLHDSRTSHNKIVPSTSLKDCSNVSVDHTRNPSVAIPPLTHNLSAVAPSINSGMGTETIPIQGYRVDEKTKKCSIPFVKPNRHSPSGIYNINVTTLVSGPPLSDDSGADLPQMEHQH

[20] = tested on: EGFR (human), P00533 [G719C]; settings: compound 10.0 µM
[21] = biological target: FYN (human) (UniProt P06241); settings: compound 10.0 µM
[22] = biological target: RPS6KA1 KD2 (human) (UniProt Q15418); settings: compound 10.0 µM
[23] = biological target: EPHA8 (human) (UniProt P29322); settings: compound 10.0 µM
[24] = biological target: RPS6KA4 KD2 (human) (UniProt O75676); settings: compound 10.0 µM
[25] = biological target: RIPK1 (human) (UniProt Q13546); settings: compound 10.0 µM
[26] = biological target: RPS6KA2 KD2 (human) (UniProt Q15349); settings: compound 10.0 µM
[27] = biological target: ALK (human) (UniProt Q9UM73); settings: compound 10.0 µM
[28] = biological target: CaMK1 (human) (UniProt Q14012); settings: compound 10.0 µM
[29] = biological target: MUSK (human) (UniProt O15146); settings: compound 10.0 µM
Sequence of MUSK (human) (O15146 whole entry, looked up): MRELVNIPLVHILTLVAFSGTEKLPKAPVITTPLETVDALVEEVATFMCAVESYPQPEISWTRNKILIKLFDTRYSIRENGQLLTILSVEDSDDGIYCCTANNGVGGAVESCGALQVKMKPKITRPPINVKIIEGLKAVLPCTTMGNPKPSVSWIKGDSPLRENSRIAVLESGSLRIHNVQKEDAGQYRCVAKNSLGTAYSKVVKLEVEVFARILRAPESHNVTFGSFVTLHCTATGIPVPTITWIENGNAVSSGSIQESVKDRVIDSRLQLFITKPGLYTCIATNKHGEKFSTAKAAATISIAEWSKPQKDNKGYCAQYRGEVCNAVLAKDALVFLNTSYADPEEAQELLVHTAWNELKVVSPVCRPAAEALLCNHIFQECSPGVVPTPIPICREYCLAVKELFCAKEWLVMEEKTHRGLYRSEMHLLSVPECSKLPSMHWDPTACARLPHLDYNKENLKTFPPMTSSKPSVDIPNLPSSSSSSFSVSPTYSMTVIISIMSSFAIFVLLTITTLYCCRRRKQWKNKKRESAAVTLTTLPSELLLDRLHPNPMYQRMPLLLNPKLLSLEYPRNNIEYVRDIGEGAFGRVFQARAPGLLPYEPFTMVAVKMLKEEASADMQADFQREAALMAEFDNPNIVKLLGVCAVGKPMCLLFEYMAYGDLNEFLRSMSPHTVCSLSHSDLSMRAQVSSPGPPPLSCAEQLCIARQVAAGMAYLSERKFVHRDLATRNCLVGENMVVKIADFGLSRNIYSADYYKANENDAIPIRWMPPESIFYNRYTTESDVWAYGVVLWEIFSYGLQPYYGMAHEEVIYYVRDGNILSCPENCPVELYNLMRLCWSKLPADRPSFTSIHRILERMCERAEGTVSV

[30] = biological target: RIOK1 (human) (UniProt Q9BRS2); settings: compound 10.0 µM
[31] = biological target: EPHA4 (human) (UniProt P54764); settings: compound 10.0 µM
[32] = biological target: MST1R (human) (UniProt Q04912); settings: compound 10.0 µM
[33] = tested on: EGFR (human), P00533 [P753S; 747-752 del]; settings: compound 10.0 µM
[34] = biological target: MAP3K12 (human) (UniProt Q12852); settings: compound 10.0 µM
[35] = biological target: GSK3B (human) (UniProt P49841); settings: compound 10.0 µM
[36] = biological target: CDK9 (human) (UniProt P50750); settings: compound 10.0 µM
[37] = biological target: RPS6KA3 KD1 (human) (UniProt P51812); settings: compound 10.0 µM
[38] = biological target: TNNI3K (human) (UniProt Q59H18); settings: compound 10.0 µM
[39] = biological target: PDGFRB (human) (UniProt P09619); settings: compound 10.0 µM
[40] = biological target: MET (human) (UniProt P08581); settings: compound 10.0 µM
[41] = biological target: BMX (human) (UniProt P51813); settings: compound 10.0 µM
Sequence of BMX (human) (P51813 whole entry, looked up): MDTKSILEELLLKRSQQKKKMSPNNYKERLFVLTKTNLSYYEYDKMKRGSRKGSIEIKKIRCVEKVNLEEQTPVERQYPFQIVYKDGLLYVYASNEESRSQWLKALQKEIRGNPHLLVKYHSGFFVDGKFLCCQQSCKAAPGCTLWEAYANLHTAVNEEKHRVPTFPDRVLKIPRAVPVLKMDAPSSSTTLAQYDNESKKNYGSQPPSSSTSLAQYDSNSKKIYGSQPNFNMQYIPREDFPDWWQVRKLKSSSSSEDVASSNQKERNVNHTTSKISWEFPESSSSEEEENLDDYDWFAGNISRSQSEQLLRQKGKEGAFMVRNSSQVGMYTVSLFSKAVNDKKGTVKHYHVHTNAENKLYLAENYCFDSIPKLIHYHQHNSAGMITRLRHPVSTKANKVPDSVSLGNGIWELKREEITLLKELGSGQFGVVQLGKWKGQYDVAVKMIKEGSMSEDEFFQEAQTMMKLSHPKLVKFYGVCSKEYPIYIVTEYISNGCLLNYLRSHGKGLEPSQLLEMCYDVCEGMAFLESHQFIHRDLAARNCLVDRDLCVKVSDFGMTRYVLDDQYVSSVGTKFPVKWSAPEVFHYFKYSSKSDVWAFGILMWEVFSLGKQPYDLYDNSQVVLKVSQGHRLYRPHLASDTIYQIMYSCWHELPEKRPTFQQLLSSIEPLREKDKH

[42] = biological target: STK4 (human) (UniProt Q13043); settings: compound 10.0 µM

## CCOc1cc(N2CCC(N3CCCCC3)CC2)ccc1Nc1nc(Nc2ccccc2S(=O)(=O)C(C)C)c2cn[nH]c2n1
[1]
  kinase still bound, per cent of control: 67%
[2]
  kinase still bound, per cent of control: 100%
[3]
  kinase still bound, per cent of control: 7%
[4]
  kinase still bound, per cent of control: 47%
[5]
  IC50: 58 µM
  kinase still bound, per cent of control: 3.6%
[6]
  kinase still bound, per cent of control: 100%
[7]
  kinase still bound, per cent of control: 100%
[8]
  kinase still bound, per cent of control: 100%
[9]
  kinase still bound, per cent of control: 100%
[10]
  kinase still bound, per cent of control: 100%
[11]
  kinase still bound, per cent of control: 100%
[12]
  kinase still bound, per cent of control: 100%
[13]
  kinase still bound, per cent of control: 84%
[14]
  kinase still bound, per cent of control: 100%
[15]
  kinase still bound, per cent of control: 100%
[16]
  kinase still bound, per cent of control: 100%
[17]
  kinase still bound, per cent of control: 6.6%
[18]
  kinase still bound, per cent of control: 15%
[19]
  kinase still bound, per cent of control: 91%
[20]
  kinase still bound, per cent of control: 81%
[21]
  kinase still bound, per cent of control: 100%
[22]
  kinase still bound, per cent of control: 14%
[23]
  kinase still bound, per cent of control: 100%
[24]
  kinase still bound, per cent of control: 97%
[25]
  kinase still bound, per cent of control: 100%
[26]
  kinase still bound, per cent of control: 7.4%
[27]
  kinase still bound, per cent of control: 34%
[28]
  kinase still bound, per cent of control: 4.6%
[29]
  kinase still bound, per cent of control: 100%
[30]
  kinase still bound, per cent of control: 100%
[31]
  kinase still bound, per cent of control: 100%
[32]
  kinase still bound, per cent of control: 100%
[33]
  kinase still bound, per cent of control: 40%
[34]
  kinase still bound, per cent of control: 100%
[35]
  kinase still bound, per cent of control: 84%
[36]
  kinase still bound, per cent of control: 100%
[37]
  kinase still bound, per cent of control: 2%
[38]
  kinase still bound, per cent of control: 100%
[39]
  kinase still bound, per cent of control: 69%
[40]
  kinase still bound, per cent of control: 100%
[41]
  kinase still bound, per cent of control: 100%
[42]
  kinase still bound, per cent of control: 100%

## CCN1CCN(Cc2ccc(NC(=O)c3ccc(C)c(Oc4ccnc5[nH]ccc45)c3)cc2C(F)(F)F)CC1
[1]
  kinase still bound, per cent of control: 1.2%
[5]
  kinase still bound, per cent of control: 2.2%
[6]
  kinase still bound, per cent of control: 0.4%
[7]
  kinase still bound, per cent of control: 0.1%
[12]
  kinase still bound, per cent of control: 0.95%
[14]
  kinase still bound, per cent of control: 0%
[15]
  kinase still bound, per cent of control: 0%
[17]
  kinase still bound, per cent of control: 14%
[19]
  kinase still bound, per cent of control: 0.9%
[20]
  kinase still bound, per cent of control: 12%
[21]
  kinase still bound, per cent of control: 1.6%
[23]
  kinase still bound, per cent of control: 0.1%
[25]
  kinase still bound, per cent of control: 0%
[27]
  kinase still bound, per cent of control: 0.55%
[28]
  kinase still bound, per cent of control: 0%
[29]
  kinase still bound, per cent of control: 0.2%
[31]
  kinase still bound, per cent of control: 5.8%
[33]
  kinase still bound, per cent of control: 1.2%
[36]
  kinase still bound, per cent of control: 5.8%
[38]
  kinase still bound, per cent of control: 4.8%
[39]
  kinase still bound, per cent of control: 0%
[41]
  kinase still bound, per cent of control: 2.4%
